Values of other authors in patent publication US9409783B2, “Method for manufacturing mesoporous materials, materials so produced and use of mesoporous materials” (Nanologica AB, priority 2008, dated 2016).

Conditions: L-glutamate group of folic acid; deprotonated and negatively charged above this pH

- pKa value: 8.3
Compound: Nc1nc2ncc(CNc3ccc(C(=O)N[C@@H](CCC(=O)O)C(=O)O)cc3)nc2c(=O)[nH]1 [folic acid]
